We go through two compounds from publication PMC12126525, “Mechanism of ATP hydrolysis in the Hsp70 BiP nucleotide-binding domain” (Nature Communications, 2025).

Holding throughout (design): His6 (N, cleaved yes); made in house; host or cells: E. coli BL21-(DE3)-Lemo, pET28a vector
Assay [1] concerns the target T1, BiP NBD (Homo sapiens, UniProt P11021). Description: NMR titration (equilibrium methyl-TROSY) with phosphate. The assay is classed as binding. The settings on record: for Average IMABAADP.pi/IMABAADP: Supplementary Fig 12 f.
Assay [2] deals with T1, BiP NBD. Put plainly: NMR experiment with MABA-ATP (no E1, no E2) and kinetic fit of the MABA-ATP/MABA-ADP functional cycle. The class given is biochemical. The settings on record: for koff / kon / Kd: MABA-ATP instead of ATP; for Kd: T = 37°C; for species: Supplementary Fig 13b. The method, then:
[…] After the equilibration time 2D [^13C,^1H]-HMQC spectra were recorded in interleaved mode with 1D ^1H NMR spectra. […] The same setup was used for the alternative experiments by including or excluding E1 and/or E2. When E1 was not included, the ratio of the ATP/ADP NMR signals was used to monitor their relative concentrations.
(§1) (1 picture or pasted object on this page, not shown here)

Assay [3] deals with T1, BiP NBD. Description: Equilibrium 2D methyl-TROSY NMR fingerprint spectra with ligands (ATP analogs, calcium). The class given is binding. The following applies: 3.3 mM calcium, 10 mM magnesium. The method, then: First, we probed calcium binding to ADP-bound NBD by NMR equilibrium experiments. […] (Supplementary Fig. 15d). […] (Supplementary Fig. 16).
AMPPNP (adenylyl imidodiphosphate; Jena-bioscience), AMPPCP (adenylyl methylenediphosphate; Jena-bioscience) and ATP-γ-S (adenosine 5’-(gamma-thiotriphosphate; Jena-bioscience) were dissolved in the HKM reaction buffer (25 mM HEPES, pH 7.5, 150 mM KCl and 10 mM MgCl2) at a concentration of 50 mM directly before to be mixed with the BiP NBD sample. Samples were prepared fresh before each use to minimize the known instability of these analogs that undergo slow hydrolysis in solution.
Supplementary Figure 7. Analysis of the BiP NBD ATP-bound state. a, Combined methyl chemical shift differences between the APD·Pi-bound and the ATP-bound state of BiP NBD in-cyclo. The magnitude of 1 and 1.5 SDs are indicated by an orange and a red line, respectively. b, Overlay of 9 crystal structures of BiP NBD in presence of different nucleotides (colored sticks). c, Backbone root means square deviation (RMSD - Å) between the structures shown in (b) and the NBD apo state (PDB 3LDN). d, 2D [13C,1H]-TROSY spectrum of methyl-labeled BiP NBD in equilibrium with the ATP analogs AMPPNP (green), AMPPCP (orange) or ATP-γ-S (yellow), overlayed with the spectrum in-cyclo (pink).
State- and sequence-specific resonance assignments are indicated for the ADP-bound (light blue), ADP·Pi-bound (dark blue) and the ATP-bound (red) states in-cyclo.
as §1
Supplementary Figure 15. Mapping of calcium binding to BiP NBD. a, Selected details from published structures of BiP. From left to right: yeast BiP(NBD)-Mg2+-ADP (PDB 3QFU), human BiP(NBD)-Mg2+- ADP·Pi (PDB 5EVZ), human BiP(NBD)-Ca2+-ADP (PDB 6ZYH). b, Selected sections of 2D [13C,1H]-methyl-TROSY spectra of residue val50cg1 or Ile52cd1 for the equilibrium experiments of NBD apo (grey), NBD with 5 mM Pi (green), NBD with 1 mM ADP (light blue), NBD with 1 mM ADP·Pi (dark blue), NBD with 1 mM ADP-Ca2+ (dark-pink).and NBD with 3.3 mM calcium ([Mg2+]/[Ca2+]=3) (light-pink). c, Combined methyl chemical shift differences between the BiP NBD APD and the ADP-Ca2+-bound state. The magnitude of 1 and 1.5 SDs are indicated by a light blue and a dark blue line. d, Structure of NBD in […]
the ADP-Ca-bound state (PDB 6ZYH).

T1 sequence (P11021 19-406): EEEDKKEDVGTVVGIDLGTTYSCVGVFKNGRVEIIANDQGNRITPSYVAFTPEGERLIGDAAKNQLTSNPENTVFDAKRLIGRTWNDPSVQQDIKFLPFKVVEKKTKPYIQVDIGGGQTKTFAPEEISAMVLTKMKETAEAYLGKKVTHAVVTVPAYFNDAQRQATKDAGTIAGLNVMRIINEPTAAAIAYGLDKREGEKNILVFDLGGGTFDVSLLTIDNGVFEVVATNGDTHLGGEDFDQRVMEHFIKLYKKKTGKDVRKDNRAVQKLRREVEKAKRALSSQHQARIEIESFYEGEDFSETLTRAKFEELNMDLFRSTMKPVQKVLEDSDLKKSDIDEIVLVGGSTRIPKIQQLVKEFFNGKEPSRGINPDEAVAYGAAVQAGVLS

For the compound `O=P(O)(O)O` [Pi], the Kd (commonly a measure of binding affinity in units of concentration) was 270 ± 40 µM on BiP NBD [1] (4MABA: Pi binding to NBD·MABA-ADP, 1 mM MABA-ADP); 310 ± 40 µM at BiP NBD [1] (KD3: Pi binding to apo NBD, 100 μM BiP NBD, 25 °C); 280 ± 50 µM on BiP NBD [1] (KD4: Pi binding to NBD·ADP, 1 mM ADP); 280 ± 30 µM on BiP NBD [2] (reactions 1MABA, 2MABA, 3: release to apo NBD); 360 ± 20 µM at BiP NBD [2] (reactions 4MABA, 5MABA: release from NBD·MABA-ADP·Pi). Moreover, the “Average IMABAADP.pi/IMABAADP” value is 0.3154 on BiP NBD [1] (Pi 0.15 mM), 0.5289 on BiP NBD [1] (Pi 0.25 mM) and 0.6366 on BiP NBD [1] (Pi 0.5 mM). In addition, the off-rate constant (koff) (as a rule, a measure of how fast the partners let go of each other) on BiP NBD [2] (reactions 1MABA, 2MABA, 3) worked out at 1 ± 0.3 s⁻¹; at BiP NBD [2] (reactions 4MABA, 5MABA) it was 0.043 s⁻¹. For the same compound, the kon (usually a measure of how fast the partners come together) at BiP NBD [2] (reactions 1MABA, 2MABA, 3) was 3500 ± 500 M⁻¹ s⁻¹; at BiP NBD [2] (reactions 4MABA, 5MABA), 120 ± 20 M⁻¹ s⁻¹. In addition, the species on BiP NBD [2] (time 4 min) stood at 350 µM; on BiP NBD [2] (time 10 min) it was 508 µM; at BiP NBD [2] (time 16 min), 626 µM; on BiP NBD [2] (time 22 min), 712 µM; at BiP NBD [2] (time 28 min) it was 800 µM; on BiP NBD [2] (time 34 min), 840 µM. Further, the species at BiP NBD [2] (time 40 min) was found to be 889 µM; on BiP NBD [2] (time 46 min), 907 µM; at BiP NBD [2] (time 52 min), 929 µM; on BiP NBD [2] (time 58 min), 924 µM; on BiP NBD [2] (time 64 min) it was 932 µM.

Consider `[Ca+2]` [calcium], for which the “calcium binding to ADP-bound NBD (CSPs)” value on BiP NBD [3] is “calcium binding occurred”.
